Measured values: PMC1903359, “Engineering of PA-IIL lectin from Pseudomonas aeruginosa – Unravelling the role of the specificity loop for sugar preference” (BMC Structural Biology, 2007)
pKd: −log10 of the molar value. Read-outs that look alike come from different tables or passages of the source.

Legend:
[1] = tested on: PA-IIL wild type; conditions: cited from earlier work
[2] = tested on: RS-IIL; set-up: method as in PMID 16768446; conditions: cited from earlier work
[3] = molecular target: PA-IIL G24N (Pseudomonas aeruginosa, UniProt Q9HYN5, G25N); experiment: ITC binding of monosaccharides to PA-IIL mutant G24N; conditions: for ΔH / -TΔS: ITC at 25°C; for -TΔS: calculated from ΔG and ΔH
[4] = molecular target: PA-IIL S22A (Pseudomonas aeruginosa, UniProt Q9HYN5, S23A); experiment: ITC binding of monosaccharides to PA-IIL mutant S22A; conditions: for -TΔS: calculated from ΔG and ΔH
[5] = molecular target: PA-IIL S23A (Pseudomonas aeruginosa, UniProt Q9HYN5, S24A); experiment: ITC binding of monosaccharides to PA-IIL mutant S23A; conditions: ITC at 25°C
[6] = molecular target: PA-IIL lectin from Pseudomonas aeruginosa, mutant G24N (Pseudomonas aeruginosa); experiment: crystal structure; mutants co-crystallised with fucose (hanging drop), soaked 24 h in 10 mM Me-α-D-Man or Me-α-L-Fuc; tetramer in the asymmetric unit
[7] = molecular target: PA-IIL lectin from Pseudomonas aeruginosa, mutant S22A (Pseudomonas aeruginosa); experiment: as above
[8] = molecular target: PA-IIL lectin from Pseudomonas aeruginosa, mutant S23A (Pseudomonas aeruginosa); experiment: as above
[9] = PA-IIL wild type, ITC at 25°C, ref Sabin, C. et al, 2006 [14]
[10] = ITC at 25°C, comparison data, Figure 7 gives ref 18

In the case of `CO[C@@H]1O[C@@H](C)[C@@H](O)[C@@H](O)[C@@H]1O` [Me-α-L-Fuc, methyl α-L-fucopyranoside], the “-TΔS” value [1, 9] is listed as 4.9 (± 1.0) kJ/mol, the KA [1, 9] is listed as 235 (± 8.0) ×10^4M^-1 and the pKd [1, 9] is listed as 6.37. For the same compound, the ΔG [1, 9] was -36.4 (± 0.1) kJ/mol, the ΔH [1, 9] was -41.3 (± 1.0) kJ/mol and the “entropic contribution TΔS” value ([1]; native (wild type) PA-IIL, sign as TΔS) was -1.17 kcal/mol. For the same compound, the KA ([2]; footnote b: value < 10^4 M^-1) was < 10000 M⁻¹ and the pKd ([2]; footnote b) was < 4.00.

In the case of `CO[C@@H]1O[C@@H](CO)[C@@H](O)[C@@H](O)[C@@H]1O` [Me-α-L-Gal, methyl α-L-galactopyranoside], the “-TΔS” value [1, 9] is given as -2.3 (± 0.7) kJ/mol, the KA [1, 9] is given as 85.0 (± 5.0) ×10^4M^-1 and the pKd [1, 9] is given as 5.93. The ΔH [1, 9] was -31.5 (± 0.6) kJ/mol, the ΔH [3] was -18.7 (± 0.3) kJ/mol and the “-TΔS” value [3] was -15.0 (± 0.9) kJ/mol. For the same compound, the ΔH ([4]; S22A, ITC at 25°C) was -19.2 (± 0.2) kJ/mol, the “-TΔS” value ([4]; S22A, ITC at 25°C) was -8.3 (± 0.3) kJ/mol and the ΔH [5] was -26.8 (± 1.7) kJ/mol.

For `CO[C@H]1O[C@H](CO)[C@@H](O)[C@H](O)[C@@H]1O` [Me-β-D-Man, methyl α-D-mannopyranoside], the “-TΔS” value [2, 10] is given as -13.0 (± 0.2) kJ/mol, the KA [2, 10] is given as 438 (± 2.0) ×10^4M^-1 and the pKd [2, 10] is given as 6.64. For the same compound, the ΔG [2, 10] was -37.9 (± 0.1) kJ/mol, the ΔH [3] was -27.1 (± 0.8) kJ/mol and the “-TΔS” value [3] was 2.1 (± 0.9) kJ/mol. For the same compound, the “entropic contribution as share of the total Gibbs energy change” value ([3]; unfavourable entropic contribution) was 8%, the “times higher affinity of the mutant compared to the wild type protein” value ([4]; S22A versus wild type PA-IIL) was 25 times and the “total difference in free energy, mutant versus wild type” value ([4]; S22A versus wild type PA-IIL) was -1.91 kcal/mol. For the same compound, the “-TΔS” value ([4]; S22A, ITC at 25°C) was -7.4 (± 0.7) kJ/mol, the “favourable entropic contribution TΔS” value ([4]; S22A, sign as TΔS) was 1.77 kcal/mol and the ΔH [5] was -16.7 (± 2.3) kJ/mol. The KA ([5]; 0.1 M Tris-HCl, 30 μM CaCl2, pH 7.5) was 1.91 (± 0.33) ×10^4M^-1 and the “-TΔS” value ([5]; calculated from ΔG and ΔH) was -7.7 (± 2.7) kJ/mol.

Work on “PA-IIL lectin from Pseudomonas aeruginosa, mutant G24N (natural protein)” yielded a stoichiometry N [6] of 4.

With “PA-IIL lectin from Pseudomonas aeruginosa, mutant S22A (natural protein)” the stoichiometry N [7] was 4.

With “PA-IIL lectin from Pseudomonas aeruginosa, mutant S23A (natural protein)” the stoichiometry N [8] was 4.
